11 compounds from patent US20100093536A1, “CONTROL OF GRASSY WEEDS WITH VINYLGLYCINES AND VINYLGLYCINE-PRODUCING ORGANISMS” (THE STATE OF OREGON ACTING BY AND THROUGH THE STATE BOARD …, priority 2008, published 2010) can be followed below.

The test system of the experiment is Poa annua (annual bluegrass) seeds. Nature of the experiment: Standard GAF Bioassay System (Standard Poa Bioassay), seed germination scored after 7 days. Type of experiment: in vivo. More on the design: key to GERMINATION SCORE IN THE POA BIOASSAY (±Standard Error of the Mean) / GERMINATION SCORE (±Standard Error of the Mean): germination score, 0 = no germination to 4.0 = first true leaf emerged. The following applies: for reversal of the effects of GAF by amino acids, in words: in presence of WH6 culture filtrate; for toxicity of trace metal in the Poa bioassay, in words: higher concentrations tested (up to 200 μM). The method, then: The seed of Poa annua (or other test seeds) were surface-sterilized by placing two to five grams of seeds in a 50 ml glass beaker, covering the seeds with a 50% (v/v) solution of H2SO4, and stirring vigorously for 5 minutes. The seed/acid mixture was filtered through a Gooch crucible and repeatedly rinsed with tap water to remove residual acid. The seeds were then placed in a beaker and covered with bleach (Clorox®, NaOCl, 5.25%) containing 1% (v/v) polyoxethylene sorbitan monolaurate (Tween®-20). The seeds were stirred for 5 minutes and then repeatedly rinsed with sterile deionized water and placed in a sterile Petri dish. The seeds were used immediately while wet or dried (spread in a thin layer and allowed to dry under a laminar flow hood with the Petri dish lid ajar for 4 to 8 hours) to prevent premature germination.
Bioassays for GAF activity were performed with Poa annua (annual bluegrass) seeds unless otherwise indicated. For each concentration of each test solution, 200 μl aliquots of solution were distributed to each of three wells of a sterile Costar® forty-eight well tissue culture plate (Corning® Costar® Number 3548). Three surface-sterilized Poa annua seeds were aseptically transferred to each well and submerged in the liquid, providing a total of nine observations for each concentration of each solution tested. The lid of the tissue culture plate was sealed with Parafilm® and the plate was placed in a germinator at 20° C. (8 hour day length at a light intensity of 50 μmol/m^2/s, 16 hour dark period) for seven days. Germination was scored on the basis of the following four-point system: • Score 0: No visible signs of germination. • Score 0.5: Seed coat split but plumule and coleorhiza are not visible. • Score 1.0: Plumule and coleorhiza visible. Plumule chlorotic and shorter than length of seed. Root not yet visible. • Score 1.5: Plumule still shorter than length of seed, but root is clearly visible. • Score 2.0: Plumule approximately equal in length to the seed. Root elongated. • Score 2.5: Plumule obviously longer than length of seed. First true leaf still enclosed in coleoptile. • Score 3.0: First true leaf emerged from coleoptile and green. Emerged portion of the leaf is obviously shorter than the coleoptile. • Score 3.5: First true leaf emerged from coleoptile and green. Emerged portion of the leaf is approximately equal in length to the coleoptile. • Score 4.0: First true leaf emerged from coleoptile and green. Emerged portion of the leaf is obviously longer than the coleoptile.

Setting [1] is: WH6 culture filtrate 0, amino acid 0.3 mM.
Setting [2] is: WH6 culture filtrate 0, amino acid 1 mM.
The mark [3] stands for this setting: WH6 culture filtrate 0, amino acid 3 mM.
The mark [4] stands for this setting: WH6 culture filtrate 0, amino acid 10 mM.
The mark [5] stands for this setting: WH6 culture filtrate 0, amino acid 30 mM.
Setting [6] is: WH6 culture filtrate 0.1X plus amino acid 0.3 mM.
Setting [7] is: WH6 culture filtrate 0.1X plus amino acid 1 mM.
The mark [8] stands for this setting: WH6 culture filtrate 0.1X plus amino acid 3 mM.
Setting [9] is: WH6 culture filtrate 0.1X plus amino acid 10 mM.
Setting [10] is: WH6 culture filtrate 0.1X plus amino acid 30 mM.
Setting [11] is: GAF Conc. 0, metal 12.5 μM, score 4.0 = normal germination, 1.0 = arrest.
Where [12] appears, read: GAF Conc. 2X plus metal 12.5 μM.

Turning to `C[C@H](N)C(=O)O` [Alanine], the “reversal of the effects of GAF by amino acids, in words” value is recorded as “most effective”. Moreover, the “GERMINATION SCORE (±Standard Error of the Mean)” value under setting [1] is given as 4.0 ± 0.0. In addition, the “GERMINATION SCORE (±Standard Error of the Mean)” value under setting [2] was 3.9 ± 0.1. In addition, under setting [3], the “GERMINATION SCORE (±Standard Error of the Mean)” value came out at 4.0 ± 0.0. Further, the “GERMINATION SCORE (±Standard Error of the Mean)” value under setting [4] was determined as 3.9 ± 0.1. The “GERMINATION SCORE (±Standard Error of the Mean)” value under setting [5] came to 3.2 ± 0.1. Also, the “GERMINATION SCORE (±Standard Error of the Mean)” value under setting [6] was determined as 1.9 ± 0.1. The “GERMINATION SCORE (±Standard Error of the Mean)” value under setting [7] was determined as 3.3 ± 0.1. Besides, under setting [8], the “GERMINATION SCORE (±Standard Error of the Mean)” value is 4.0 ± 0.0. Moreover, under setting [9], the “GERMINATION SCORE (±Standard Error of the Mean)” value turned out to be 4.0 ± 0.0. In addition, the “GERMINATION SCORE (±Standard Error of the Mean)” value under setting [10] turned out to be 4.0 ± 0.0.

Turning to `O=S(=O)([O-])[O-].[Fe+2]` [FeSO4], the “POA BIOASSAY SCORES (±Standard Error of the Mean)” value is recorded as 4.00 ± 0.00 under setting [11]; 3.50 ± 0.13 (GAF Conc. 0, metal 25 μM); 3.00 ± 0.00 (GAF Conc. 0, metal 50 μM); 2.86 ± 0.44 (GAF Conc. 0, metal 100 μM); 2.47 ± 0.07 (GAF Conc. 0, metal 200 μM); 1.00 ± 0.00 under setting [12]. For the same compound, the “POA BIOASSAY SCORES (±Standard Error of the Mean)” value (GAF Conc. 2X plus metal 25 μM) was determined as 1.00 ± 0.00, the “POA BIOASSAY SCORES (±Standard Error of the Mean)” value (GAF Conc. 2X plus metal 50 μM) amounted to 1.00 ± 0.00, the “POA BIOASSAY SCORES (±Standard Error of the Mean)” value (GAF Conc. 2X plus metal 100 μM) was found to be 1.00 ± 0.00 and the “POA BIOASSAY SCORES (±Standard Error of the Mean)” value (GAF Conc. 2X plus metal 200 μM) is recorded as 1.00 ± 0.00.

As for `[Cl][Cu][Cl]` [CuCl2], the “POA BIOASSAY SCORES (±Standard Error of the Mean)” value came to 3.3 ± 0.17 under setting [11]; 2.9 ± 0.04 (GAF Conc. 0, metal 25 μM); 1.2 ± 0.27 (GAF Conc. 0, metal 50 μM); 0.30 ± 0.28 (GAF Conc. 0, metal 100 μM); 0.00 ± 0.00 (GAF Conc. 0, metal 200 μM); 1.00 ± 0.00 under setting [12]. Further, the “POA BIOASSAY SCORES (±Standard Error of the Mean)” value amounted to 2.58 ± 0.06 (GAF Conc. 2X plus metal 25 μM), 3.94 ± 0.06 (GAF Conc. 2X plus metal 50 μM), 2.97 ± 0.03 (GAF Conc. 2X plus metal 100 μM) and 2.69 ± 0.09 (GAF Conc. 2X plus metal 200 μM).

Consider `NC(=O)CC[C@H](N)C(=O)O` [Glutamine], for which the “reversal of the effects of GAF by amino acids, in words” value was “most effective”. Further, the “GERMINATION SCORE (±Standard Error of the Mean)” value under setting [1] is recorded as 4.0 ± 0.0. Under setting [2], the “GERMINATION SCORE (±Standard Error of the Mean)” value amounted to 4.0 ± 0.0. Under setting [3], the “GERMINATION SCORE (±Standard Error of the Mean)” value is given as 3.7 ± 0.3. Further, the “GERMINATION SCORE (±Standard Error of the Mean)” value under setting [4] was determined as 3.7 ± 0.3. Moreover, the “GERMINATION SCORE (±Standard Error of the Mean)” value under setting [5] is recorded as 4.0 ± 0.0. Further, under setting [6], the “GERMINATION SCORE (±Standard Error of the Mean)” value came to 1.4 ± 0.1. Under setting [7], the “GERMINATION SCORE (±Standard Error of the Mean)” value is reported as 1.8 ± 0.2. For the same compound, the “GERMINATION SCORE (±Standard Error of the Mean)” value under setting [8] was 3.5 ± 0.3. The “GERMINATION SCORE (±Standard Error of the Mean)” value under setting [9] came to 4.0 ± 0.0. Besides, under setting [10], the “GERMINATION SCORE (±Standard Error of the Mean)” value is on record as 4.0 ± 0.0.

As for `[Fe]` [Iron], the “toxicity of trace metal in the Poa bioassay, in words” value is “slight toxicity”.

As to `CC(C)C[C@H](N)C(=O)O` [Leucine], the “GERMINATION SCORE (±Standard Error of the Mean)” value worked out at 3.9 ± 0.2 under setting [1]; 4.0 ± 0.0 under setting [2]; 3.6 ± 0.2 under setting [3]; 3.0 ± 0.0 under setting [4]; 1.7 ± 0.1 under setting [5]; 1.5 ± 0.0 under setting [6]. For the same compound, the “GERMINATION SCORE (±Standard Error of the Mean)” value amounted to 1.5 ± 0.3 under setting [7], 3.6 ± 0.1 under setting [8], 3.4 ± 0.1 under setting [9] and 2.8 ± 0.1 under setting [10].

Regarding `O=S(=O)([O-])[O-].[Cu+2]` [CuSO4], the “POA BIOASSAY SCORES (±Standard Error of the Mean)” value reads like this: under setting [11], 3.5 ± 0.00; (GAF Conc. 0, metal 25 μM) 3.00 ± 0.00; (GAF Conc. 0, metal 50 μM) 1.11 ± 0.11; (GAF Conc. 0, metal 100 μM) 0.00 ± 0.00; (GAF Conc. 0, metal 200 μM) 0.00 ± 0.00; under setting [12], 1.00 ± 0.00. Further, the “POA BIOASSAY SCORES (±Standard Error of the Mean)” value (GAF Conc. 2X plus metal 25 μM) came to 1.00 ± 0.00, the “POA BIOASSAY SCORES (±Standard Error of the Mean)” value (GAF Conc. 2X plus metal 50 μM) is recorded as 1.00 ± 0.00, the “POA BIOASSAY SCORES (±Standard Error of the Mean)” value (GAF Conc. 2X plus metal 100 μM) is on record as 3.00 ± 0.00 and the “POA BIOASSAY SCORES (±Standard Error of the Mean)” value (GAF Conc. 2X plus metal 200 μM) is reported as 0.00 ± 0.00.

With `[Cl][Ni][Cl]` [NiCl2], the “POA BIOASSAY SCORES (±Standard Error of the Mean)” value is 2.78 ± 0.05 under setting [11]; 2.47 ± 0.10 (GAF Conc. 0, metal 25 μM); 1.78 ± 0.09 (GAF Conc. 0, metal 50 μM); 1.44 ± 0.06 (GAF Conc. 0, metal 100 μM); 1.00 ± 0.00 (GAF Conc. 0, metal 200 μM); 1.00 ± 0.00 under setting [12]. The “POA BIOASSAY SCORES (±Standard Error of the Mean)” value by setting is: (GAF Conc. 2X plus metal 25 μM) 1.00 ± 0.00; (GAF Conc. 2X plus metal 50 μM) 1.00 ± 0.00; (GAF Conc. 2X plus metal 100 μM) 1.00 ± 0.00; (GAF Conc. 2X plus metal 200 μM) 1.00 ± 0.00.

Turning to `[Ca+2].[Cl-].[Cl-]` [CaCl2], the “POA BIOASSAY SCORES (±Standard Error of the Mean)” value is, setting by setting: under setting [11], 4.00 ± 0.00; (GAF Conc. 0, metal 25 μM) 4.00 ± 0.00; (GAF Conc. 0, metal 50 μM) 4.00 ± 0.00; (GAF Conc. 0, metal 100 μM) 4.00 ± 0.00; (GAF Conc. 0, metal 200 μM) 4.00 ± 0.00; under setting [12], 1.00 ± 0.00. The “POA BIOASSAY SCORES (±Standard Error of the Mean)” value stood at 1.00 ± 0.00 (GAF Conc. 2X plus metal 25 μM), 1.00 ± 0.00 (GAF Conc. 2X plus metal 50 μM), 1.00 ± 0.00 (GAF Conc. 2X plus metal 100 μM) and 1.00 ± 0.00 (GAF Conc. 2X plus metal 200 μM).

Consider `[Cl-].[Cl-].[Zn+2]` [ZnCl2], for which the “POA BIOASSAY SCORES (±Standard Error of the Mean)” value runs as follows: under setting [11], 4.00 ± 0.00; (GAF Conc. 0, metal 25 μM) 4.00 ± 0.00; (GAF Conc. 0, metal 50 μM) 4.00 ± 0.00; (GAF Conc. 0, metal 100 μM) 3.5 ± 0.00; (GAF Conc. 0, metal 200 μM) 3.00 ± 0.00; under setting [12], 1.00 ± 0.00. In addition, the “POA BIOASSAY SCORES (±Standard Error of the Mean)” value was 1.00 ± 0.00 (GAF Conc. 2X plus metal 25 μM), 1.00 ± 0.00 (GAF Conc. 2X plus metal 50 μM), 1.00 ± 0.00 (GAF Conc. 2X plus metal 100 μM) and 1.00 ± 0.00 (GAF Conc. 2X plus metal 200 μM).

For the compound `[Cu]` [Copper], the “toxicity of trace metal in the Poa bioassay, in words” value was “completely inhibiting germination”.
